Source: patent publication US9642839B2, “Substance having tyrosine kinase inhibitory activity and preparation method and use thereof” (Institute of Radiation Medicine, China Academy of Military …, priority 2013, dated 2017)

What was measured:
[1] = tested on: non-small cell lung cancer (NSCLC); conditions: 250 mg/day tablet, NSCLC patients with previous chemotherapy, 159 subjects; cited from earlier work
[2] = tested on: MHCC97-H cells; experiment: In vitro antitumor activity, MTS cell proliferation; type: cell-based, human; conditions: hepatocellular cancer, 72 hours
Protocol: (§1) Method: 14 cell lines (MKN-45 cells, MHCC97-L cells, MHCC97-H cells, HLE cells, HepG2 cells, 7721 cells, L02 cells, A375 cells, H460 cells, A549 cells, SK-N-SH cells, MCF-7 cells, K562 cells, and Ba/F3-Tpr-Met cells (pre-B cells which are malignantly transformed by the c-Met constitutive active mutant Tpr-Met) were seeded into 96-well plate at 1×10^4 cells/well, and each well was added with 150 μl DMEM medium (purchased from Invitrogen) containing 10% fetal bovine serum (purchased from Hyclone). When cell adherent was observed, different concentrations of 2-indolone derivatives (concentrations at 0.1-10 μM) were added, in addition to the negative control (vehicle control group) and blank control (medium group). After culture at 37° C., 5% CO2 for 72 hours, MTS reagent (Promega Corporation) were added for further culture for 2-4 h.

[3] = tested on: A549 cells; experiment: as above; type: cell-based, human; conditions: A549, lung cancer, 72 hours
Protocol: as §1

[4] = tested on: MKN-45 cells; experiment: as above; type: cell-based; conditions: MKN-45, gastric cancer, 72 hours
Protocol: as §1

[5] = tested on: HepG2 cells; experiment: as above; type: cell-based; conditions: HepG2, hepatocellular cancer, 72 hours
Protocol: as §1

[6] = tested on: K562 cells; experiment: as above; type: cell-based; conditions: K562, leukemia, 72 hours
Protocol: as §1

[7] = tested on: MCF-7 cells; experiment: as above; type: cell-based; conditions: MCF-7, breast cancer, 72 hours
Protocol: as §1

[8] = tested on: A375 cells; experiment: as above; type: cell-based; conditions: A375, skin cancer, 72 hours
Protocol: as §1

[9] = tested on: Ba/F3-Tpr-Met cells; experiment: as above; type: cell-based; conditions: pre-B cell, 72 hours
Protocol: as §1

[10] = tested on: HLE cells; experiment: as above; type: cell-based; conditions: hepatocellular cancer, 72 hours
Protocol: as §1

[11] = tested on: MHCC97-L cells; experiment: as above; type: cell-based; conditions: hepatocellular cancer, 72 hours
Protocol: as §1

[12] = tested on: H460 cells; experiment: as above; type: cell-based; conditions: H460, lung cancer, 72 hours
Protocol: as §1

[13] = tested on: SK-N-SH cells; experiment: as above; type: cell-based; conditions: neuroblastoma, 72 hours
Protocol: as §1

[14] = tested on: L02 cells; experiment: MTS cell proliferation, normal liver cells; type: cell-based; conditions: L02, normal hepatic cells, 72 hours
Protocol: […] After culture at 37° C., 5% CO2 for 72 hours, MTS reagent (Promega Corporation) were added for further culture for 2-4 h.

[15] = tested on: protein tyrosine kinase (PTK); experiment: PTK activity assay with mouse brain tissue extract (ELISA, OD 492 nm); type: biochemical; conditions: at 400 μM
Protocol: Tyrosine kinase buffer: 10 mL 1M HEPES (pH 7.5), 0.4 mL 5% BSA/PBS, 0.2 mL 0.1M Na3VO4, and 1 mL 5M NaCl were added to 88.4 mL double distilled water (DDW) (HEPES: Amresco; Na3VO4: Sigma).
Extraction of tissue extract PTK: mouse brain tissue was quickly removed and weighed, followed by addition of five-fold volumes of pre-cooled homogenization buffer for homogenization. After centrifugation at 4° C., 1,000 g for 10 min, nuclei and cell debris were removed. The supernatant S1 was collected and centrifuged at 4° C., 10,000 g for 20 min, and then the supernatant S2 was collected. The precipitate P2, which represents the crude membrane protein fraction, was retained. S2 included cytoplasmic protein, and was used for testing protein tyrosine kinase (PTK) activity. In the detection of the membrane protein fraction, two-fold volumes of lysis buffer was added to P2, and the resultant was placed on ice for 10 min and centrifuged at 4° C., 10,000 g for 10 min. The supernatant S3, which represents the crude membrane protein including soluble membrane protein, was collected for testing PTK activity. Protein content in cytoplasm or membrane protein was detected by using BCA protein concentration kit (purchased from Beyotime Institute of Biotechnology). The tissue extract was stored at −70° C.
Coating of 96-well plate: PTK substrate was dissolved and added in an amount of 100 μl to each well. The plate was covered with its lid, and incubated at 4° C. overnight (10-12 hours). Then it was washed with 200 μl elution buffer once, and dried at 37° C. for 2 h. After that, it was washed with 10 mM PBS once, dried at room temperature, and then stored at 4° C. for further use.
Groups: blank control: 80 μl 1× tyrosine kinase buffer containing ATP+20 μl 1× tyrosine kinase buffer; negative control: 80 μl 1× tyrosine kinase buffer containing ATP+10 μl 1× tyrosine kinase buffer+7 μl tissue extract+3 μl 1× tyrosine kinase buffer; positive control: 80 μl 1× tyrosine kinase buffer containing ATP+10 μl Gefitinib+7 μl tissue extract+3 μl 1× tyrosine kinase buffer (first, the positive drug was allowed to interact with the tyrosine kinase tissue extract at room temperature for 10 min, and meanwhile the tissue extract for the negative control group was also placed at room temperature for 10 min, and then 80 μl 1× tyrosine kinase buffer containing ATP was added to respective groups); vehicle control: 80 μl 1× tyrosine kinase buffer containing ATP+10 μl DMSO+7 μl tissue extract+3 μl 1× tyrosine kinase buffer; drugs to be screened: 80 μl 1× tyrosine kinase buffer containing ATP+10 μl drug to be tested +7 μl tissue extract+3 μl 1× tyrosine kinase buffer.
PTK activity assay: 1× tyrosine kinase buffer was prepared by evenly mixing 1 mL (10×) tyrosine kinase buffer with 9 mL DDW. The tissue extract was diluted with 1× tyrosine kinase buffer appropriately, mixed with it gently and evenly, and placed on ice. ATP stock solution was dissolved by evenly mixing 48 μl ATP stock solution with 1 mL 1× tyrosine kinase buffer, and placed on ice. The microplate reader was added in respective wells with the groups formulated as above, covered with the lid, and incubated at room temperature for 30 min. The microplate reader was washed with 200 μl elution buffer and tapped until the residual buffer was removed, and this procedure was repeated for five times. To each well, 100 μl antibody diluent (antibody elution buffer diluted at a ratio of 1:2000) was added. The reader was covered with the lid, and incubated at room temperature for 30 min. OPD solution was prepared by addition of 4 mg OPD into a mixture of 4.86 mL 0.1 mol/L citric acid solution and 5.14 mL 0.2 mol/L Na2HPO4 solution, followed by addition of 50 μl 30% H2O2 to allow for complete dissolution, and then was protected from light. The antibody solution was removed. The reader was washed with 200 μl elution buffer and tapped until the residual buffer was removed, and this procedure was repeated for five times.

IC50 [2] [nM]	IC50 [3] [nM]	IC50 [4] [nM]	IC50 [5] [nM]	IC50 [6] [nM]	IC50 [7] [nM]	IC50 [8] [nM]	IC50 [9] [nM]	IC50 [10] [nM]	IC50 [11] [nM]	IC50 [12] [nM]	IC50 [13] [nM]	Inhibition rate on tyrosine kinase [15] [%]	SMILES	Objective response rate [1] [%]	IC50 [14] [nM]
													COc1cc2ncnc(Nc3ccc(F)c(Cl)c3)c2cc1OCCCN1CCOCC1 [Gefitinib]	27.0	
540	2320	940	3690	1340	1460	970	2540	3580	640	780	540	60.7	O=C1Nc2ccc(S(=O)(=O)NC3CCCCC3)cc2C1=Cc1nc2ccccc2[nH]1 [Indo 4, 3-(1H-benzimidazol-2-methylene)-5-(cyclohexylaminosulfo)-2-indolone]		26800
910	1990	1380	5180	2210	1120	1650	4210	4870	1060	940	1060	55.0	O=C1Nc2ccc(S(=O)(=O)Nc3ccc(Cl)cc3)cc2C1=Cc1nc2ccccc2[nH]1 [Indo 6, 3-(1H-benzimidazol-2-methylene)-5-(4-chlorophenylaminosulfo)-2-indolone]		22600
1170	2520	1720	5980	2640	1350	2120	4910	5910	1310	1250	1220	51.3	CCOc1ccc(NS(=O)(=O)c2ccc3c(c2)C(=Cc2nc4ccccc4[nH]2)C(=O)N3)cc1 [Indo 9, 3-(1H-benzimidazol-2-methylene)-5-(4-ethoxyphenylaminosulfo)-2-indolone]		23200
1670	3160	2130	6980	3270	1950	2480	5930	6790	1870	1780	1790	45.2	O=C1Nc2ccc(S(=O)(=O)Nc3ccc(F)c(Cl)c3)cc2C1=Cc1nc2ccccc2[nH]1 [Indo 2, 3-(1H-benzimidazol-2-methylene)-5-(3-chloro-4-fluorophenylaminosulfo)-2-indolone]		23700
1530	3020	2020	6740	3110	1810	2350	5680	6580	1680	1630	1570	49.9	Cc1ccc(NS(=O)(=O)c2ccc3c(c2)C(=Cc2nc4ccccc4[nH]2)C(=O)N3)cc1 [Indo 8, 3-(1H-benzimidazol-2-methylene)-5-(4-methylphenylaminosulfo)-2-indolone]		25300
690	1280	1130	4250	1670	830	1220	3110	4360	970	920	670	58.2	O=C1Nc2ccc(S(=O)(=O)Nc3ccc(CCO)cc3)cc2C1=Cc1nc2ccccc2[nH]1 [Indo 7, 3-(1H-benzimidazol-2-methylene)-5-(4-hydroxyethylphenylaminosulfo)-2-indolone]		25700
820	1540	1290	4790	2070	960	1470	3870	4720	1110	1050	850	55.9	CN(c1ccccc1)S(=O)(=O)c1ccc2c(c1)C(=Cc1nc3ccccc3[nH]1)C(=O)N2 [Indo 3, 3-(1H-benzimidazol-2-methylene)-5-(N-methylphenylaminosulfo)-2-indolone]		22200
1380	2890	1970	6470	3020	1720	3180	5310	6310	1540	1540	1350	51.2	O=C1Nc2ccc(S(=O)(=O)Nc3ccc4ccccc4c3)cc2C1=Cc1nc2ccccc2[nH]1 [Indo 1, 3-(1H-benzimidazol-2-methylene)-5-(β-naphthylaminosulfo)-2-indolone]		24800
